Laboratory results taken from PubChem BioAssay (NCI).
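Tested at 5 concentrations; 48 h exposure; 96-well plates; endpoints linearly interpolated, else capped at highest concentration. Definition used: TGI = concentration required for complete inhibition of growth.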

Assays:
Experiment in all cases: growth of human tumour cells (NCI), 48 h
786-0 renal = test system: 786-0 renal
A498 renal = test system: A498 renal
A549 NSCLC = test system: A549 NSCLC
ACHN renal = test system: ACHN renal
CAKI-1 renal = test system: CAKI-1 renal
CCRF-CEM leukemia = test system: CCRF-CEM leukemia
COLO 205 colon = test system: COLO 205 colon
DU-145 prostate = test system: DU-145 prostate
EKVX NSCLC = test system: EKVX NSCLC
HCC-2998 colon = test system: HCC-2998 colon
HCT-116 colon = test system: HCT-116 colon
HCT-15 colon = test system: HCT-15 colon
HL-60(TB) leukemia = test system: HL-60(TB) leukemia
HOP-62 NSCLC = test system: HOP-62 NSCLC
HOP-92 NSCLC = test system: HOP-92 NSCLC
HS 578T breast = test system: HS 578T breast
HT29 colon = test system: HT29 colon
IGROV1 ovarian = test system: IGROV1 ovarian
K-562 leukemia = test system: K-562 leukemia
KM12 colon = test system: KM12 colon
LOX IMVI melanoma = test system: LOX IMVI melanoma
M14 melanoma = test system: M14 melanoma
MALME-3M melanoma = test system: MALME-3M melanoma
MCF7 breast = test system: MCF7 breast
MDA-MB-231 breast = test system: MDA-MB-231 breast
MDA-MB-435 = test system: MDA-MB-435
MDA-N = test system: MDA-N
MOLT-4 leukemia = test system: MOLT-4 leukemia
NCI-H226 lung = test system: NCI-H226 lung
NCI-H23 lung = test system: NCI-H23 lung
NCI-H460 lung = test system: NCI-H460 lung
NCI-H522 lung = test system: NCI-H522 lung
NCI/ADR-RES ovarian = test system: NCI/ADR-RES ovarian
OVCAR-3 ovarian = test system: OVCAR-3 ovarian
OVCAR-4 ovarian = test system: OVCAR-4 ovarian
OVCAR-5 ovarian = test system: OVCAR-5 ovarian
OVCAR-8 ovarian = test system: OVCAR-8 ovarian
PC-3 prostate = test system: PC-3 prostate
RPMI-8226 leukemia = test system: RPMI-8226 leukemia
SF-268 CNS = test system: SF-268 CNS
SF-295 CNS = test system: SF-295 CNS
SF-539 CNS = test system: SF-539 CNS
SK-MEL-2 melanoma = test system: SK-MEL-2 melanoma
SK-MEL-28 melanoma = test system: SK-MEL-28 melanoma
SK-MEL-5 melanoma = test system: SK-MEL-5 melanoma
SK-OV-3 ovarian = test system: SK-OV-3 ovarian
SN12C renal = test system: SN12C renal
SNB-19 CNS = test system: SNB-19 CNS
SNB-75 CNS = test system: SNB-75 CNS
SR leukemia = test system: SR leukemia
SW-620 colon = test system: SW-620 colon
T-47D breast = test system: T-47D breast
TK-10 renal = test system: TK-10 renal
U251 CNS = test system: U251 CNS
UACC-257 melanoma = test system: UACC-257 melanoma
UACC-62 melanoma = test system: UACC-62 melanoma
UO-31 renal = test system: UO-31 renal
BT-549 breast = test system: BT-549 breast
RXF 393 renal = test system: RXF 393 renal

With `C/C(=N\NC(=S)NCc1ccccc1)c1nc2ncccc2[nH]1` as the molecule, how does the TGI (786-0 renal) read?
The TGI was > 100 µM.

And the TGI (A498 renal)?
The TGI was 50 µM.

And the TGI (A549 NSCLC)?
The TGI was > 100 µM.

What about the TGI (ACHN renal) of the same molecule?
The TGI was 52.9 µM.

What about the TGI (CAKI-1 renal) of the same molecule?
Its TGI is 61.2 µM.

And the TGI (CCRF-CEM leukemia)?
The TGI was 19.2 µM.

What about the TGI (COLO 205 colon) of the same molecule?
Its TGI is 34.4 µM.

What about the TGI (DU-145 prostate) of the same molecule?
Its TGI is 24.5 µM.

And the TGI (EKVX NSCLC)?
Its TGI is 8.51 µM.

What about the TGI (HCC-2998 colon) of the same molecule?
Its TGI is 68.4 µM.

What about the TGI (HCT-116 colon) of the same molecule?
The TGI was 17.3 µM.

What about the TGI (HCT-15 colon) of the same molecule?
Its TGI is 37.2 µM.

And the TGI (HL-60(TB) leukemia)?
The TGI was > 100 µM.

What about the TGI (HOP-62 NSCLC) of the same molecule?
The TGI was 26.2 µM.

What about the TGI (HOP-92 NSCLC) of the same molecule?
Its TGI is 22.5 µM.

And the TGI (HS 578T breast)?
The TGI was > 100 µM.

What about the TGI (HT29 colon) of the same molecule?
Its TGI is 12.8 µM.

What about the TGI (IGROV1 ovarian) of the same molecule?
Its TGI is 34.1 µM.

And the TGI (K-562 leukemia)?
Its TGI is 41.5 µM.

And the TGI (KM12 colon)?
The TGI was 21.5 µM.

What about the TGI (LOX IMVI melanoma) of the same molecule?
The TGI was 21.4 µM.

What about the TGI (M14 melanoma) of the same molecule?
The TGI was 19.8 µM.

What about the TGI (MALME-3M melanoma) of the same molecule?
The TGI was 34.6 µM.

What about the TGI (MCF7 breast) of the same molecule?
The TGI was 16.2 µM.

And the TGI (MDA-MB-231 breast)?
Its TGI is 90.2 µM.

What about the TGI (MDA-MB-435) of the same molecule?
Its TGI is 33.5 µM.

What about the TGI (MDA-N) of the same molecule?
Its TGI is 26.8 µM.

And the TGI (MOLT-4 leukemia)?
Its TGI is 17.5 µM.

And the TGI (NCI-H226 lung)?
The TGI was 20.8 µM.

And the TGI (NCI-H23 lung)?
The TGI was 40.8 µM.

What about the TGI (NCI-H460 lung) of the same molecule?
The TGI was 27.6 µM.

And the TGI (NCI-H522 lung)?
The TGI was 32 µM.

What about the TGI (NCI/ADR-RES ovarian) of the same molecule?
The TGI was 78.8 µM.

What about the TGI (OVCAR-3 ovarian) of the same molecule?
Its TGI is 39.8 µM.

What about the TGI (OVCAR-4 ovarian) of the same molecule?
Its TGI is 83 µM.

What about the TGI (OVCAR-5 ovarian) of the same molecule?
Its TGI is 30.2 µM.

What about the TGI (OVCAR-8 ovarian) of the same molecule?
Its TGI is 26.8 µM.

And the TGI (PC-3 prostate)?
Its TGI is 50.2 µM.

What about the TGI (RPMI-8226 leukemia) of the same molecule?
The TGI was 59.9 µM.

What about the TGI (SF-268 CNS) of the same molecule?
Its TGI is 65.6 µM.

What about the TGI (SF-295 CNS) of the same molecule?
The TGI was 22.8 µM.

And the TGI (SF-539 CNS)?
The TGI was 20.8 µM.

And the TGI (SK-MEL-2 melanoma)?
Its TGI is 36 µM.

And the TGI (SK-MEL-28 melanoma)?
Its TGI is 37.4 µM.

What about the TGI (SK-MEL-5 melanoma) of the same molecule?
Its TGI is 14.6 µM.

What about the TGI (SK-OV-3 ovarian) of the same molecule?
Its TGI is > 100 µM.

What about the TGI (SN12C renal) of the same molecule?
Its TGI is > 100 µM.

And the TGI (SNB-19 CNS)?
Its TGI is 50.2 µM.

And the TGI (SNB-75 CNS)?
The TGI was 49 µM.

And the TGI (SR leukemia)?
The TGI was > 100 µM.

What about the TGI (SW-620 colon) of the same molecule?
Its TGI is > 100 µM.

What about the TGI (T-47D breast) of the same molecule?
The TGI was 43.3 µM.

And the TGI (TK-10 renal)?
Its TGI is 73.4 µM.

What about the TGI (U251 CNS) of the same molecule?
The TGI was 19.4 µM.

What about the TGI (UACC-257 melanoma) of the same molecule?
Its TGI is 22.1 µM.

What about the TGI (UACC-62 melanoma) of the same molecule?
The TGI was 27.1 µM.

And the TGI (UO-31 renal)?
The TGI was 11 µM.

How did the TGI (786-0 renal) turn out when `COc1cc(C2C(Cl)C(=O)N2NC(=O)c2ccc(NC(C)=O)cc2OC)ccc1O` (stereo not drawn) was run?
The TGI was 33.3 µM.

And the TGI (A498 renal)?
Its TGI is 37.5 µM.

And the TGI (A549 NSCLC)?
Its TGI is > 100 µM.

And the TGI (ACHN renal)?
The TGI was 50.2 µM.

What about the TGI (BT-549 breast) of the same molecule?
The TGI was 33.9 µM.

And the TGI (CAKI-1 renal)?
Its TGI is 94 µM.

And the TGI (CCRF-CEM leukemia)?
The TGI was 14.6 µM.

And the TGI (COLO 205 colon)?
Its TGI is 32 µM.

And the TGI (DU-145 prostate)?
Its TGI is 43.5 µM.

What about the TGI (EKVX NSCLC) of the same molecule?
The TGI was 29.2 µM.

And the TGI (HCT-116 colon)?
Its TGI is 33.2 µM.

And the TGI (HCT-15 colon)?
Its TGI is 40.6 µM.

And the TGI (HL-60(TB) leukemia)?
Its TGI is 44.8 µM.

And the TGI (HOP-92 NSCLC)?
The TGI was 31.3 µM.

And the TGI (HT29 colon)?
The TGI was 34.1 µM.

And the TGI (IGROV1 ovarian)?
The TGI was 79.7 µM.

And the TGI (K-562 leukemia)?
Its TGI is 55.2 µM.

What about the TGI (KM12 colon) of the same molecule?
The TGI was 68 µM.

What about the TGI (LOX IMVI melanoma) of the same molecule?
The TGI was 26.4 µM.

What about the TGI (M14 melanoma) of the same molecule?
Its TGI is 33.9 µM.

What about the TGI (MALME-3M melanoma) of the same molecule?
The TGI was 53.6 µM.

And the TGI (MCF7 breast)?
Its TGI is 38.1 µM.

What about the TGI (MDA-MB-435) of the same molecule?
The TGI was > 100 µM.

And the TGI (MDA-N)?
The TGI was 50.7 µM.

What about the TGI (MOLT-4 leukemia) of the same molecule?
The TGI was 22.1 µM.

What about the TGI (NCI-H226 lung) of the same molecule?
The TGI was 43.7 µM.

What about the TGI (NCI-H23 lung) of the same molecule?
The TGI was 39.8 µM.

And the TGI (NCI-H522 lung)?
The TGI was 23 µM.

What about the TGI (NCI/ADR-RES ovarian) of the same molecule?
The TGI was > 100 µM.

And the TGI (OVCAR-3 ovarian)?
Its TGI is 53.5 µM.

What about the TGI (OVCAR-4 ovarian) of the same molecule?
The TGI was > 100 µM.

What about the TGI (OVCAR-5 ovarian) of the same molecule?
Its TGI is 28.4 µM.

What about the TGI (OVCAR-8 ovarian) of the same molecule?
Its TGI is 73.3 µM.

What about the TGI (PC-3 prostate) of the same molecule?
The TGI was 55 µM.

What about the TGI (RPMI-8226 leukemia) of the same molecule?
The TGI was 13.4 µM.

What about the TGI (RXF 393 renal) of the same molecule?
Its TGI is 47.4 µM.

And the TGI (SF-268 CNS)?
The TGI was 61.5 µM.

And the TGI (SF-295 CNS)?
Its TGI is > 100 µM.

And the TGI (SF-539 CNS)?
The TGI was 48.1 µM.

What about the TGI (SK-MEL-2 melanoma) of the same molecule?
The TGI was 29.9 µM.

What about the TGI (SK-MEL-28 melanoma) of the same molecule?
The TGI was 97.8 µM.

And the TGI (SK-MEL-5 melanoma)?
The TGI was 29.4 µM.

And the TGI (SK-OV-3 ovarian)?
Its TGI is > 100 µM.

And the TGI (SN12C renal)?
The TGI was 35 µM.

And the TGI (SNB-19 CNS)?
The TGI was 47.4 µM.

And the TGI (SNB-75 CNS)?
The TGI was 80.1 µM.

What about the TGI (SR leukemia) of the same molecule?
Its TGI is > 100 µM.

What about the TGI (SW-620 colon) of the same molecule?
The TGI was 76.3 µM.

And the TGI (T-47D breast)?
The TGI was 52.2 µM.

And the TGI (UACC-62 melanoma)?
Its TGI is 36.2 µM.

And the TGI (UO-31 renal)?
Its TGI is 95.5 µM.
